CC(C)C[C@H](NC(=O)OCC1c2ccccc2-c2ccccc21)C(=O)O
solubility (mole fraction)
Conditions | in acetone | in acetonitrile | in ethanol | in ethyl acetate | in isopropanol | in methanol | in methyl acetate | in n-butanol | in n-propanol
283.15 K | 0.0724 | 0.00333 | 0.0256 | 0.0468 | 0.0166 | 0.0288 | 0.0246 | 0.0198 | 0.0218
288.15 K | 0.0773 | 0.00382 | 0.0284 | 0.0496 | 0.0185 | 0.033 | 0.0279 | 0.0216 | 0.0245
293.15 K | 0.0838 | 0.0047 | 0.0324 | 0.0536 | 0.0209 | 0.0384 | 0.0318 | 0.0258 | 0.0278
298.15 K | 0.0927 | 0.0055 | 0.0379 | 0.0607 | 0.0272 | 0.0455 | 0.0372 | 0.0295 | 0.0317
303.15 K | 0.101 | 0.00689 | 0.0443 | 0.0692 | 0.0352 | 0.0543 | 0.0428 | 0.0354 | 0.0372
308.15 K | 0.108 | 0.00832 | 0.0522 | 0.0782 | 0.0441 | 0.0621 | 0.0487 | 0.0456 | 0.0464
313.15 K | 0.117 | 0.0104 | 0.0614 | 0.0862 | 0.0551 | 0.0771 | 0.0554 | 0.0565 | 0.0574
318.15 K | 0.131 | 0.0126 | 0.0716 | 0.0961 | 0.0687 | 0.106 | 0.063 | 0.0687 | 0.0691
323.15 K | 0.142 | 0.0166 | 0.0854 | 0.106 | 0.0844 | 0.137 | 0.0711 | 0.086 | 0.0853

Source: BigSolDB 2.1
